Assay results reported in article PMC10337138 (Acta Neuropathologica Communications, 2023).

Legend:
Details in all cases: 1 mM ATP; inhibitor
SGK1 = SGK1 (Homo sapiens, UniProt O00141)
Description: (§1) Kinase selectivity panel Kinome profiling was conducted by AssayQuant Technologies (Marlboro, MA) using Sox chromophore technology and Sox-based peptide substrates developed for human kinases in a 384-well format. Compounds were tested at 1 µM in the presence of 1 mM ATP.

EPHB2 = EPHB2 (Homo sapiens, UniProt P29323)
Description: as §1

CDK4/D3 = CDK4/D3 (Homo sapiens, UniProt P11802)
Description: as §1

CDK1/E1 = CDK1/E1 (Homo sapiens, UniProt P06493)
Description: as §1

AURKC/AURC = AURKC/AURC (Homo sapiens, UniProt Q9UQB9)
Description: as §1

DMPK1 = target: T1, DMPK1 (Homo sapiens, UniProt Q09013)
T1 construct: gene DMPK
T1 sequence (Q09013 whole entry): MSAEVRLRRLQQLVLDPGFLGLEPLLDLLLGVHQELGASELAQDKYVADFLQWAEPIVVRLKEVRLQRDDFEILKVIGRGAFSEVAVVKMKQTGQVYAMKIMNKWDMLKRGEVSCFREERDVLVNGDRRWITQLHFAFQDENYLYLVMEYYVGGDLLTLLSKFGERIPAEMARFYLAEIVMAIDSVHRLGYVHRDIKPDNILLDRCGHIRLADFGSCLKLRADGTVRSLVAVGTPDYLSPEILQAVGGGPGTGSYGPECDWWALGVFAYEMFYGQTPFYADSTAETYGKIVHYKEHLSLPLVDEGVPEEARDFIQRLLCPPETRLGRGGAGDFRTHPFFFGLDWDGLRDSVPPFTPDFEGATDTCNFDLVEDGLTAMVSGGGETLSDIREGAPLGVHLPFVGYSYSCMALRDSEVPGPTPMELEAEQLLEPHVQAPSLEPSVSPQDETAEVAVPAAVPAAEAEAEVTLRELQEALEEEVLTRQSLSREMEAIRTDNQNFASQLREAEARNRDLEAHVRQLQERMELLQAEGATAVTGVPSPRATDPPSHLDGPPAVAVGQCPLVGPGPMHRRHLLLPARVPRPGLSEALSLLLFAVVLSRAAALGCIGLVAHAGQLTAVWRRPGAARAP
Description: as §1

EGFR = EGFR (Homo sapiens, UniProt P00533)
EGFR, sequence (P00533 whole entry): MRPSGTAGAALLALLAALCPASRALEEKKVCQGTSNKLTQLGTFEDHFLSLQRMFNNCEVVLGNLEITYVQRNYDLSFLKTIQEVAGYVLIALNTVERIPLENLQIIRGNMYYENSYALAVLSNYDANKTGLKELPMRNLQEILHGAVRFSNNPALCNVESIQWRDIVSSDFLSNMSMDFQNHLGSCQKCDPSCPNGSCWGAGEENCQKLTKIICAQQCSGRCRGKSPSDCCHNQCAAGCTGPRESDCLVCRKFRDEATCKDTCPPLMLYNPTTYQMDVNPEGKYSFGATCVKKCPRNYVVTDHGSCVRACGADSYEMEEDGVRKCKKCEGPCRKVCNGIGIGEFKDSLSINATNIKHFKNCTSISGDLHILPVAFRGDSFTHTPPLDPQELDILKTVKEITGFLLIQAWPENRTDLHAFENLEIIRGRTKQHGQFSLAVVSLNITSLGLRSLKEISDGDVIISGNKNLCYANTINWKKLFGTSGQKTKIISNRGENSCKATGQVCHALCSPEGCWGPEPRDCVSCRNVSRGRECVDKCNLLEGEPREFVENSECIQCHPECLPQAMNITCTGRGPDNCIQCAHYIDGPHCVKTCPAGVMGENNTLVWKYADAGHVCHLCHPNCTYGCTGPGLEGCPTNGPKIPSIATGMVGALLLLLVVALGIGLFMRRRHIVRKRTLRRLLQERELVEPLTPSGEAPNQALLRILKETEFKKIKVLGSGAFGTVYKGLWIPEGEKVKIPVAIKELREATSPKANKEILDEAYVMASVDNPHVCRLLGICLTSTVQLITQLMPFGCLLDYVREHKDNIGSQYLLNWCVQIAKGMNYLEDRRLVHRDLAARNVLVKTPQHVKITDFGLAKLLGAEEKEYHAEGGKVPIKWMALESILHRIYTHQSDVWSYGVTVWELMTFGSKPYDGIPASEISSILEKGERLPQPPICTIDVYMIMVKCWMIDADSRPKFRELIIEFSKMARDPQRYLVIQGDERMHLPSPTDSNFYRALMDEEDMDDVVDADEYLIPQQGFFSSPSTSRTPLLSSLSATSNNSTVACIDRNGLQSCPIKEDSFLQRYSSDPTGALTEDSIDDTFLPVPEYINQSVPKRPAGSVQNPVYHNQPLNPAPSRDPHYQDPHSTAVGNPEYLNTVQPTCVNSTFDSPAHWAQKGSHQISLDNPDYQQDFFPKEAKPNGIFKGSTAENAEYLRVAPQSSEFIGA
Description: as §1

DAPK3 = DAPK3 (Homo sapiens, UniProt O43293)
Description: as §1

MAP3K8 = MAP3K8 (Homo sapiens, UniProt P41279)
MAP3K8, sequence (P41279 whole entry): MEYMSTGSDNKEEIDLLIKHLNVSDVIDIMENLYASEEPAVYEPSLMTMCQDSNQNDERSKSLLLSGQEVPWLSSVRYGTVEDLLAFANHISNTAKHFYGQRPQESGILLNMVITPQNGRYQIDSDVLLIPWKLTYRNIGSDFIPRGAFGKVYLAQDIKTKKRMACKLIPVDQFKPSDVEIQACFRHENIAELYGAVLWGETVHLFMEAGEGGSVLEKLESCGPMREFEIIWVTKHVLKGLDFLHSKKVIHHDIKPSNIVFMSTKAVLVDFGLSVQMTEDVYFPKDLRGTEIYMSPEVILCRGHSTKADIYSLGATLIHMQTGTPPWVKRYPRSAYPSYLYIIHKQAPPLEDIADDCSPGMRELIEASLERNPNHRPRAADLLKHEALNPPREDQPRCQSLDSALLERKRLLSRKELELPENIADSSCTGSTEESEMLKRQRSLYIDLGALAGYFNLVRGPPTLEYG
Description: as §1

JAK2(JH1) = JAK2(JH1) (Homo sapiens, UniProt O60674)
JAK2(JH1), sequence (O60674 whole entry): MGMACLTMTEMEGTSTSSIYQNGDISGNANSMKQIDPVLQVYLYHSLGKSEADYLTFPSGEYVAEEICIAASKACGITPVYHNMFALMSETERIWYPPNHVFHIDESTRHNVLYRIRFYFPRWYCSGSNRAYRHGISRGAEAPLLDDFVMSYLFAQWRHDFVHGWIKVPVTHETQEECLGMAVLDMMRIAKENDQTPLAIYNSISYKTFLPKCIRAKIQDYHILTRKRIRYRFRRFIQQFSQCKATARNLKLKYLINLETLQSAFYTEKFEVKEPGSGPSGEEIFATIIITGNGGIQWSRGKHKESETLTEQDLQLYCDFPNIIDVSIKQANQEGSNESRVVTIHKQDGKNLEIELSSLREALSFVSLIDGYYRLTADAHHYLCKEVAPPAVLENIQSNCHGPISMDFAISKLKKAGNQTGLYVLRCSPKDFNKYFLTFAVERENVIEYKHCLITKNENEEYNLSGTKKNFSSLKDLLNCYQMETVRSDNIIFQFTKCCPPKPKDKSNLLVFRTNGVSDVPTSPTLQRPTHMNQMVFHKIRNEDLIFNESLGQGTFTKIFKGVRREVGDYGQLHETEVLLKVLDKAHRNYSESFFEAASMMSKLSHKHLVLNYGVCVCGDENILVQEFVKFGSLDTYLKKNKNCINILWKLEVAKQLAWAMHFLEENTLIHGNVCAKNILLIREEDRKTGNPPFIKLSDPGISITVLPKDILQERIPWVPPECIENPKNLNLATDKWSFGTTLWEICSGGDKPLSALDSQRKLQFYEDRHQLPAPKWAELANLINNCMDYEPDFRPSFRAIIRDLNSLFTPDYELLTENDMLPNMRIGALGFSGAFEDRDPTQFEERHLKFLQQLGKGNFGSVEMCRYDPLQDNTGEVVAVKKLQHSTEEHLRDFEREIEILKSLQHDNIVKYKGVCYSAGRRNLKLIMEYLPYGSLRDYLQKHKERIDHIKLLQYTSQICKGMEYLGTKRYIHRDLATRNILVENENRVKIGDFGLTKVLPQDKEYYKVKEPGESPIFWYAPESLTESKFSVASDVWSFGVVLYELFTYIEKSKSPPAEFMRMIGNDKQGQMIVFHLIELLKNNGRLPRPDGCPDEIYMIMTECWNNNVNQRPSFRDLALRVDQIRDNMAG
Description: as §1

MAPK14/P38A = MAPK14/P38A (Homo sapiens, UniProt Q16539)
Description: as §1

JAK1(JH1JH2) = JAK1(JH1JH2) (Homo sapiens, UniProt P23458)
Description: as §1

PKN1 = PKN1 (Homo sapiens, UniProt Q16512)
PKN1, sequence (Q16512 whole entry): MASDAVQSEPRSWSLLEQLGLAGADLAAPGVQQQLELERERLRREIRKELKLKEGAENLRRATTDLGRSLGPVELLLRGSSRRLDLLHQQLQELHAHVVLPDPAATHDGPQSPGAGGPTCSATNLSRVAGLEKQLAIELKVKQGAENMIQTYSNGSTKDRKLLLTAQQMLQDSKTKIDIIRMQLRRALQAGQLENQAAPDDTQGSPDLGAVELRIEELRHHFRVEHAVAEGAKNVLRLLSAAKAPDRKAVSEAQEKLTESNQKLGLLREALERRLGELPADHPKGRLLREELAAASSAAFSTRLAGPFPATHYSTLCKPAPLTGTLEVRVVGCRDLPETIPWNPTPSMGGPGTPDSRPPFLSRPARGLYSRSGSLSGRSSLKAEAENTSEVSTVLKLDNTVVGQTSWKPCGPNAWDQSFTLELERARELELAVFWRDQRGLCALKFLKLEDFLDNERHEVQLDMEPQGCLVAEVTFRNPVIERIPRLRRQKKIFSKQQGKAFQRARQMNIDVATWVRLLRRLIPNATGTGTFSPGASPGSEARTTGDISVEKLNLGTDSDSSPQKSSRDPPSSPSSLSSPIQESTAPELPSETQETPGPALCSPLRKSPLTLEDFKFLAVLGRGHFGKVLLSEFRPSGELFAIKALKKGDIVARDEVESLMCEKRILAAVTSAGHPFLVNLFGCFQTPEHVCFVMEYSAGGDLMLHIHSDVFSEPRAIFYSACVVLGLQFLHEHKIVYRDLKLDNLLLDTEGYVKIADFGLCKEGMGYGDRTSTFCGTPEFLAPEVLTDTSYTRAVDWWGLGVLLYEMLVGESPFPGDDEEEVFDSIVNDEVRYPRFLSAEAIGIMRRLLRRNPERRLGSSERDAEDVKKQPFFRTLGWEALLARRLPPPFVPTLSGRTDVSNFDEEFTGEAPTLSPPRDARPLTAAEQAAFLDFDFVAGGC
Description: as §1

RPS6KA5/MSK1 = RPS6KA5/MSK1 (Homo sapiens, UniProt O75582)
Description: as §1

CAMK1G = CAMK1G (Homo sapiens, UniProt Q96NX5)
Description: as §1

ROS = target: T2, ROS (Homo sapiens, UniProt P08922)
T2 construct: gene ROS1
Description: as §1

PRKCG/PKCG = PRKCG/PKCG (Homo sapiens, UniProt P05129)
Description: as §1

PRKD1 = PRKD1 (Homo sapiens, UniProt Q15139)
Description: as §1

TNK2/ACK = TNK2/ACK (Homo sapiens, UniProt Q07912)
Description: as §1

CDK14 = CDK14 (Homo sapiens, UniProt O94921)
Description: as §1

RPS6KA3/RSK2 = RPS6KA3/RSK2 (Homo sapiens, UniProt P51812)
Description: as §1

ROCK2 = ROCK2 (Homo sapiens, UniProt O75116)
Description: as §1

LYNB = target: T3, LYNB (Homo sapiens, UniProt P07948)
T3 construct: gene LYN
Description: as §1

CSNK1G3/CK1G3 = CSNK1G3/CK1G3 (Homo sapiens, UniProt Q9Y6M4)
Description: as §1

CSNK1D/CK1D = CSNK1D/CK1D (Homo sapiens, UniProt P48730)
Description: as §1

LCK = LCK (Homo sapiens, UniProt P06239)
Description: as §1

PAK5 = PAK5 (Homo sapiens, UniProt Q9P286)
PAK5, sequence (Q9P286 whole entry): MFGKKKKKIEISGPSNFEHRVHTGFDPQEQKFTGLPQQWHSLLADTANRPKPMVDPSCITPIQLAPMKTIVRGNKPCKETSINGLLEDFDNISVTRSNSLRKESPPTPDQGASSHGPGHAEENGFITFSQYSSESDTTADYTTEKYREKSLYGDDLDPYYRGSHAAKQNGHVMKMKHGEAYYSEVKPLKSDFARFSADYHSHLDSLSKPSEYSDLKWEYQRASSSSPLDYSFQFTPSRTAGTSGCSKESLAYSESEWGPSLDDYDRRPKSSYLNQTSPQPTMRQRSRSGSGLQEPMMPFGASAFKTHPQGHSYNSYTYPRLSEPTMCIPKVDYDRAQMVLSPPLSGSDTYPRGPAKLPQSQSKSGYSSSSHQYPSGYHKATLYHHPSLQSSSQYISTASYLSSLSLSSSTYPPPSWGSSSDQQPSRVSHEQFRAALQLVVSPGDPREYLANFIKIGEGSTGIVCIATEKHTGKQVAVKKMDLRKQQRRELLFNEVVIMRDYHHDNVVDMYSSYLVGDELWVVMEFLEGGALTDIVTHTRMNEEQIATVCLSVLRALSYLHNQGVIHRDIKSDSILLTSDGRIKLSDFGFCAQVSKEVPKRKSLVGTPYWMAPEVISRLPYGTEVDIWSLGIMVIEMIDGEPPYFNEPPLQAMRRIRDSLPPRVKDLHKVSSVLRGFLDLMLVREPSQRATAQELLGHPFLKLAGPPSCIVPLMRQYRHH
Description: as §1

SNRK = SNRK (Homo sapiens, UniProt Q9NRH2)
Description: as §1

KSR1 = KSR1 (Homo sapiens, UniProt Q8IVT5)
Description: as §1

RIPK1 = RIPK1 (Homo sapiens, UniProt Q13546)
Description: as §1

TEC = TEC (Homo sapiens, UniProt P42680)
Description: as §1

RPS6KA2/RSK3 = RPS6KA2/RSK3 (Homo sapiens, UniProt Q15349)
Description: as §1

MAPK7/ERK5 = MAPK7/ERK5 (Homo sapiens, UniProt Q13164)
Description: as §1

CSNK2A2/CK2A2 = CSNK2A2/CK2A2 (Homo sapiens, UniProt P19784)
Description: as §1

MAPK9/JNK2 = MAPK9/JNK2 (Homo sapiens, UniProt P45984)
Description: as §1

TAOK2 = TAOK2 (Homo sapiens, UniProt Q9UL54)
Description: as §1

DRAK1 = target: T4, DRAK1 (Homo sapiens, UniProt Q9UEE5)
T4 construct: gene STK17A
Description: as §1

AURKB/AURB = AURKB/AURB (Homo sapiens, UniProt Q96GD4)
Description: as §1

**Q.** Which results are given for `C=CC(=O)N1CCC[C@@H](n2nc(-c3ccc(Oc4ccccc4)cc3)c3c(N)ncnc32)C1` [Ibrutinib]?
**A.** 1 µM GBD00276 (ibrutinib), % inhibition (SGK1): -3.083%; 1 µM GBD00276 (ibrutinib), % inhibition (EPHB2): 8.665%; 1 µM GBD00276 (ibrutinib), % inhibition (CDK4/D3): 7.114%; 1 µM GBD00276 (ibrutinib), % inhibition (CDK1/E1): -2.236%; 1 µM GBD00276 (ibrutinib), % inhibition (AURKC/AURC): 2.291%; 1 µM GBD00276 (ibrutinib), % inhibition (DMPK1): -2.197%; 1 µM GBD00276 (ibrutinib), % inhibition (EGFR): 96.63%; 1 µM GBD00276 (ibrutinib), % inhibition (DAPK3): -3.598%; 1 µM GBD00276 (ibrutinib), % inhibition (MAP3K8): -11.27%; 1 µM GBD00276 (ibrutinib), % inhibition (JAK2(JH1)): 4.378%; 1 µM GBD00276 (ibrutinib), % inhibition (MAPK14/P38A): 4.135%; 1 µM GBD00276 (ibrutinib), % inhibition (JAK1(JH1JH2)): 20.73%; 1 µM GBD00276 (ibrutinib), % inhibition (PKN1): -1.102%; 1 µM GBD00276 (ibrutinib), % inhibition (RPS6KA5/MSK1): -5.427%; 1 µM GBD00276 (ibrutinib), % inhibition (CAMK1G): 11.1875%; 1 µM GBD00276 (ibrutinib), % inhibition (ROS): 2.485%; 1 µM GBD00276 (ibrutinib), % inhibition (PRKCG/PKCG): -20.25%; 1 µM GBD00276 (ibrutinib), % inhibition (PRKD1): -11.81%; 1 µM GBD00276 (ibrutinib), % inhibition (TNK2/ACK): 31.95%; 1 µM GBD00276 (ibrutinib), % inhibition (CDK14): 3.829%; 1 µM GBD00276 (ibrutinib), % inhibition (RPS6KA3/RSK2): 28.78%; 1 µM GBD00276 (ibrutinib), % inhibition (ROCK2): 8.461%; 1 µM GBD00276 (ibrutinib), % inhibition (LYNB): 40.58%; 1 µM GBD00276 (ibrutinib), % inhibition (CSNK1G3/CK1G3): 15.91%; 1 µM GBD00276 (ibrutinib), % inhibition (CSNK1D/CK1D): 12.82%; 1 µM GBD00276 (ibrutinib), % inhibition (LCK): 75.25%; 1 µM GBD00276 (ibrutinib), % inhibition (PAK5): 14.25%; 1 µM GBD00276 (ibrutinib), % inhibition (SNRK): 6.19%; 1 µM GBD00276 (ibrutinib), % inhibition (KSR1): 8.4%; 1 µM GBD00276 (ibrutinib), % inhibition (RIPK1): -33.95%; 1 µM GBD00276 (ibrutinib), % inhibition (TEC): 98.943%; 1 µM GBD00276 (ibrutinib), % inhibition (RPS6KA2/RSK3): 22.45%; 1 µM GBD00276 (ibrutinib), % inhibition (MAPK7/ERK5): -0.1217%; 1 µM GBD00276 (ibrutinib), % inhibition (CSNK2A2/CK2A2): -24.31%; 1 µM GBD00276 (ibrutinib), % inhibition (MAPK9/JNK2): -5.789%; 1 µM GBD00276 (ibrutinib), % inhibition (TAOK2): 11.03%; 1 µM GBD00276 (ibrutinib), % inhibition (DRAK1): 18.73%; 1 µM GBD00276 (ibrutinib), % inhibition (AURKB/AURB): 7.598%
